Test results published in patent US12552766B2, “Pesticidally active azole amide compounds” (SYNGENTA CROP PROTECTION AG, priority 2019, dated 2026).

Assays:
Assay type in all cases: in vivo
[1] = system: Spodoptera littoralis (Egyptian Cotton Leaf Worm); experiment: Example B9: Spodoptera littoralis, spray on cotton leaf discs; conditions: foliar, 72 h, application rate of 200 ppm, L1 larvae, 3 days after infestation, read-out: control in at least one of the three categories (mortality, anti-feedant effect, or growth inhibition)
Description: Cotton leaf discs were placed onto agar in 24-well microtiter plates and sprayed with aqueous test solutions prepared from 10′000 ppm DMSO stock solutions. After drying the leaf discs were infested with five L1 larvae. The samples were assessed for mortality, anti-feeding effect, and growth inhibition in comparison to untreated samples 3 days after infestation. Control of Spodoptera littoralis by a test sample is given when at least one of the categories mortality, anti-feedant effect, and growth inhibition is higher than the untreated sample.

[2] = system: Chilo suppressalis (Striped Rice Stemborer); experiment: Example B4: Chilo suppressalis, artificial diet; conditions: 144 h, application rate of 200 ppm, L2 larvae, 6 days after infestation, read-out: control in at least one of the three categories (mortality, anti-feedant effect, or growth inhibition)
Description: 24-well microtiter plates with artificial diet were treated with aqueous test solutions prepared from 10′000 ppm DMSO stock solutions by pipetting. After drying, the plates were infested with L2 larvae (6-8 per well). The samples were assessed for mortality, anti-feeding effect, and growth inhibition in comparison to untreated samples 6 days after infestation. Control of Chilo suppressalis by a test sample is given when at least one of the categories mortality, anti-feedant effect, and growth inhibition is higher than the untreated sample.

[3] = system: Plutella xylostella (Diamond Back Moth); experiment: Example B5: Plutella xylostella, artificial diet, 24-well; conditions: 192 h, application rate of 200 ppm, eggs, 8 days after infestation, read-out: control in at least one of the two categories (mortality or growth inhibition)
Description: 24-well microtiter plates with artificial diet were treated with aqueous test solutions prepared from 10′000 ppm DMSO stock solutions by pipetting. After drying, Plutella eggs were pipetted through a plastic stencil onto a gel blotting paper and the plate was closed with it. The samples were assessed for mortality and growth inhibition in comparison to untreated samples 8 days after infestation.

[4] = system: Diabrotica Balteata (Corn Root Worm); experiment: Example B1: Diabrotica balteata, spray on maize sprouts; conditions: 96 h, application rate of 200 ppm, L2 larvae, 4 days after infestation, read-out: control in at least one of the two categories (mortality or growth inhibition)
Description: Maize sprouts placed onto an agar layer in 24-well microtiter plates were treated with aqueous test solutions prepared from 10′000 ppm DMSO stock solutions by spraying. After drying, the plates were infested with L2 larvae (6 to 10 per well). The samples were assessed for mortality and growth inhibition in comparison to untreated samples 4 days after infestation.

[5] = system: Plutella xylostella (Diamondback Moth); experiment: Example B13: Plutella xylostella, artificial diet, 96-well; conditions: 216 h, application rate of 500 ppm, eggs/L1 larvae, 9 days after infestation
Description: 96-well microtiter plates containing artificial diet were treated with aqueous test solutions, prepared from 10′000 ppm DMSO stock solutions, by a liquid handling robot. After drying, eggs (˜30 per well) were infested onto a netted lid which was suspended above the diet. The eggs hatch and L1 larvae move down to the diet. The samples were assessed for mortality 9 days after infestation.

CC(NC(=O)c1cc(OC(F)F)cc(C(F)(F)F)c1)c1nc(Br)nn1-c1ccc(OC(F)F)cn1 (centres unmarked) [Compound P7, N-[1-[5-bromo-2-[5-(difluoromethoxy)-2-pyridyl]-1,2,4-triazol-3-yl]ethyl]-3-(difluoromethoxy)-5-(trifluoromethyl) benzamide]
≥ 80%: percent control (mortality, anti-feedant effect or growth inhibition) at 200 ppm [1] | percent control (mortality, anti-feedant effect or growth inhibition) at 200 ppm [2] | percent control (mortality or growth inhibition) at 200 ppm [3] | percent control (mortality or growth inhibition) at 200 ppm [4]

CC(NC(=O)c1cc(OC(F)(F)F)cc(C(F)(F)F)c1)c1nc(Br)nn1-c1ccc(C#N)cn1 (centres unmarked) [Compound P9, N-[1-[5-bromo-2-(5-cyano-2-pyridyl)-1,2,4-triazol-3-yl]ethyl]-3-(trifluoromethoxy)-5-(trifluoromethyl)benzamide]
≥ 80%: percent control (mortality, anti-feedant effect or growth inhibition) at 200 ppm [1] | percent control (mortality, anti-feedant effect or growth inhibition) at 200 ppm [2] | percent control (mortality or growth inhibition) at 200 ppm [3] | percent control (mortality or growth inhibition) at 200 ppm [4]

CC(NC(=O)c1cc(OC(F)F)cc(C(F)(F)F)c1)c1nc(Br)nn1-c1ccc(C#N)cn1 (centres unmarked) [Compound P10, N-[1-[5-bromo-2-(5-cyano-2-pyridyl)-1,2,4-triazol-3-yl]ethyl]-3-(difluoromethoxy)-5-(trifluoromethyl)benzamide]
≥ 80%: percent control (mortality, anti-feedant effect or growth inhibition) at 200 ppm [1] | percent control (mortality, anti-feedant effect or growth inhibition) at 200 ppm [2] | percent control (mortality or growth inhibition) at 200 ppm [3] | percent control (mortality or growth inhibition) at 200 ppm [4]

CC(NC(=O)c1cc(C(F)(F)F)cc(C(F)(F)F)c1)c1nc(Br)nn1-c1ccc(C#N)cn1 (centres unmarked) [Compound P11, N-[1-[5-bromo-2-(5-cyano-2-pyridyl)-1,2,4-triazol-3-yl]ethyl]-3,5-bis(trifluoromethyl)benzamide]
≥ 80%: percent control (mortality, anti-feedant effect or growth inhibition) at 200 ppm [1] | percent control (mortality, anti-feedant effect or growth inhibition) at 200 ppm [2] | percent control (mortality or growth inhibition) at 200 ppm [3] | percent control (mortality or growth inhibition) at 200 ppm [4]

CC(NC(=O)c1cc(OCC(F)(F)F)cc(C(F)(F)F)c1)c1nc(Br)nn1-c1ccc(OC(F)F)cn1 (centres unmarked) [Compound P14, N-[1-[5-bromo-2-[5-(difluoromethoxy)-2-pyridyl]-1,2,4-triazol-3-yl]ethyl]-3-(2,2,2-trifluoroethoxy)-5-(trifluoromethyl) benzamide]
≥ 80%: percent control (mortality, anti-feedant effect or growth inhibition) at 200 ppm [1] | percent control (mortality, anti-feedant effect or growth inhibition) at 200 ppm [2] | percent control (mortality or growth inhibition) at 200 ppm [3] | percent control (mortality or growth inhibition) at 200 ppm [4]

CC(NC(=O)c1cc(OC(F)(F)F)cc(C(F)(F)F)c1)c1nc(Br)nn1-c1ncc(OCC(F)F)cn1 (centres unmarked) [Compound P22, N-[1-[5-bromo-2-[5-(2,2-difluoroethoxy)pyrimidin-2-yl]-1,2,4-triazol-3-yl]ethyl]-3-(trifluoromethoxy)-5-(trifluoromethyl) benzamide]
≥ 80%: percent control (mortality, anti-feedant effect or growth inhibition) at 200 ppm [1] | percent control (mortality, anti-feedant effect or growth inhibition) at 200 ppm [2] | percent control (mortality or growth inhibition) at 200 ppm [3] | percent control (mortality or growth inhibition) at 200 ppm [4]

CC(NC(=O)c1cc(SC(F)(F)F)cc(C(F)(F)F)c1)c1nc(Br)nn1-c1ncc(OCC(F)F)cn1 (centres unmarked) [Compound P24, N-[1-[5-bromo-2-[5-(2,2-difluoroethoxy)pyrimidin-2-yl]-1,2,4-triazol-3-yl]ethyl]-3-(trifluoromethyl)-5-(trifluoromethyl-sulfanyl)benzamide]
≥ 80%: percent control (mortality, anti-feedant effect or growth inhibition) at 200 ppm [1] | percent control (mortality, anti-feedant effect or growth inhibition) at 200 ppm [2] | percent control (mortality or growth inhibition) at 200 ppm [3] | percent control (mortality or growth inhibition) at 200 ppm [4]

CC(NC(=O)c1cc(C(F)(F)F)cc(C(F)(F)F)c1)c1nc(Br)nn1-c1ncc(OCC(F)F)cn1 (centres unmarked) [Compound P25, N-[1-[5-bromo-2-[5-(2,2-difluoroethoxy)pyrimidin-2-yl]-1,2,4-triazol-3-yl]ethyl]-3,5-bis(trifluoromethyl) benzamide]
≥ 80%: percent control (mortality, anti-feedant effect or growth inhibition) at 200 ppm [1] | percent control (mortality, anti-feedant effect or growth inhibition) at 200 ppm [2] | percent control (mortality or growth inhibition) at 200 ppm [3] | percent control (mortality or growth inhibition) at 200 ppm [4]

CC(NC(=O)c1cc(C(F)(F)F)cc(C(F)(F)F)c1)c1nc(-c2ncccn2)nn1-c1ccc(C#N)cn1 (centres unmarked) [Compound P32, N-[1-[2-(5-cyano-2-pyridyl)-5-pyrimidin-2-yl-1,2,4-triazol-3-yl]ethyl]-3,5-bis(trifluoromethyl) benzamide]
≥ 80%: percent control (mortality, anti-feedant effect or growth inhibition) at 200 ppm [1] | percent control (mortality, anti-feedant effect or growth inhibition) at 200 ppm [2] | percent control (mortality or growth inhibition) at 200 ppm [3] | percent control (mortality or growth inhibition) at 200 ppm [4]

CC(NC(=O)c1cc(OCC(F)F)cc(C(F)(F)F)c1)c1nc(Br)nn1-c1ccc(OC(F)F)cn1 (centres unmarked) [Compound P34, N-[1-[5-bromo-2-[5-(difluoromethoxy)-2-pyridyl]-1,2,4-triazol-3-yl]ethyl]-3-(2,2-difluoroethoxy)-5-(trifluoromethyl) benzamide]
≥ 80%: percent control (mortality, anti-feedant effect or growth inhibition) at 200 ppm [1] | percent control (mortality, anti-feedant effect or growth inhibition) at 200 ppm [2] | percent control (mortality or growth inhibition) at 200 ppm [3] | percent control (mortality or growth inhibition) at 200 ppm [4]

CC(NC(=O)c1cc(OC(F)F)cc(C(F)(F)F)c1)c1nc(Br)nn1-c1ccc(OCC(F)(F)F)cn1 (centres unmarked) [Compound P38, N-[1-[5-bromo-2-[5-(2,2,2-trifluoroethoxy)-2-pyridyl]-1,2,4-triazol-3-yl]ethyl]-3-(difluoromethoxy)-5-(trifluoromethyl) benzamide]
≥ 80%: percent control (mortality, anti-feedant effect or growth inhibition) at 200 ppm [1] | percent control (mortality, anti-feedant effect or growth inhibition) at 200 ppm [2] | percent control (mortality or growth inhibition) at 200 ppm [3] | percent control (mortality or growth inhibition) at 200 ppm [4]

CC(NC(=O)c1cc(C(F)F)cc(C(F)(F)F)c1)c1nc(Br)nn1-c1ccc(OC(F)F)cn1 (centres unmarked) [Compound P51, N-[1-[5-bromo-2-[5-(difluoromethoxy)-2-pyridyl]-1,2,4-triazol-3-yl]ethyl]-3-(difluoromethyl)-5-(trifluoromethyl) benzamide]
≥ 80%: percent control (mortality, anti-feedant effect or growth inhibition) at 200 ppm [1] | percent control (mortality, anti-feedant effect or growth inhibition) at 200 ppm [2] | percent control (mortality or growth inhibition) at 200 ppm [3] | percent control (mortality or growth inhibition) at 200 ppm [4]

CC(NC(=O)c1cc(OCC(F)(F)F)cc(C(F)(F)F)c1)c1nc(Br)nn1-c1ccc(OCC(F)F)cn1 (centres unmarked) [Compound P53, N-[1-[5-bromo-2-[5-(2,2-difluoroethoxy)-2-pyridyl]-1,2,4-triazol-3-yl]ethyl]-3-(2,2,2-trifluoroethoxy)-5-(trifluoromethyl) benzamide]
≥ 80%: mortality at 500 ppm [5] | percent control (mortality, anti-feedant effect or growth inhibition) at 200 ppm [2] | percent control (mortality or growth inhibition) at 200 ppm [3]

CC(NC(=O)c1cc(C(F)F)cc(C(F)(F)F)c1)c1nc(Br)nn1-c1ccc(OCC(F)(F)F)cn1 (centres unmarked) [Compound P54, N-[1-[5-bromo-2-[5-(2,2,2-trifluoroethoxy)-2-pyridyl]-1,2,4-triazol-3-yl]ethyl]-3-(difluoromethyl)-5-(trifluoromethyl) benzamide]
≥ 80%: percent control (mortality, anti-feedant effect or growth inhibition) at 200 ppm [1] | percent control (mortality, anti-feedant effect or growth inhibition) at 200 ppm [2] | percent control (mortality or growth inhibition) at 200 ppm [3] | percent control (mortality or growth inhibition) at 200 ppm [4]

CO/N=C(\C)c1nc(C(C)NC(=O)c2cc(C(F)(F)F)cc(C(F)(F)F)c2)n(-c2ccc(C#N)cn2)n1 (centres unmarked) [Compound P56, N-[1-[2-(5-cyano-2-pyridyl)-5-[(E)-N-methoxy-C-methyl-carbonimidoyl]-1,2,4-triazol-3-yl]ethyl]-3,5-bis(trifluoromethyl) benzamide]
≥ 80%: mortality at 500 ppm [5]
